According to patent US20100285959A1, “HERBICIDAL MIXTURES” (priority 2006, published 2010):

Experiments:
[1] = tested on: common lambsquarters (CHEAL); assay: Test 26 field trial, postemergence; type: in vivo, Chenopodium album; parameters: scale not given here
Source text: (§1) Corn seeds (hybrid ‘Pioneer 31G96’) were planted in mid spring season, 3.8 cm deep in a silt loam soil having 2% organic matter and a pH of 6.6. Plots were 6.1 m long by 3.0 m wide with rows spaced 76 cm apart. Seeds were spaced 15 cm apart within the rows. The field was managed using conventional tillage practices. […] All treatments also included a surfactant. […] Some of the weed species could not be evaluated at every timing. […] Results are the means of the three replicates.

winter wheat (TRZAW) = assay: Test 27 field trial, postemergence; type: in vivo, Triticum aestivum; conditions: cv. Custer, Triticum aestivum (winter wheat), in vivo
Source text: (§2) Wheat seeds (cv. ‘Custer’) were planted in late fall season in a clay loam soil. Plots were 9 m long by 1.8 m wide. The field was managed using conventional tillage practices. […] All treatments also included a surfactant. […] Results are the means of the three replicates.

[2] = tested on: ivyleaf morningglory (IPOHE); assay: Test 26 field trial, postemergence; type: in vivo, Ipomoea hederacea; parameters: scale not given here
Source text: as §1

corn (ZEAMD) = assay: Test 26 field trial, postemergence; type: in vivo, Zea mays ssp. indentata; conditions: hybrid Pioneer 31G96, Zea mays ssp. indentata (corn), in vivo
Source text: as §1

giant ragweed (AMBTR) = assay: Test 26 field trial, postemergence; type: in vivo, Ambrosia trifida
Source text: as §1

giant foxtail (SETFA) = assay: Test 26 field trial, postemergence; type: in vivo, Setaria faberi; parameters: scale not given here
Source text: as §1

kochia (KCHSC) = assay: Test 27 field trial, postemergence; type: in vivo, Kochia scoparia; parameters: scale not given here; conditions: thifensulfuron-methyl 10 g a.i./ha
Source text: as §2

jimsonweed (DATST) = assay: Test 26 field trial, postemergence; type: in vivo, Datura stramonium; conditions: 28 DAA
Source text: as §1

[3] = tested on: Pennsylvania smartweed (POLPY); assay: Test 26 field trial, postemergence; type: in vivo, Polygonum pensylvanicum
Source text: as §1

common ragweed (AMBEL) = assay: Test 26 field trial, postemergence; type: in vivo, Ambrosia artemisiifolia; parameters: scale not given here
Source text: as §1

velvetleaf (ABUTH) = assay: Test 26 field trial, postemergence; type: in vivo, Abutilon theophrasti; parameters: scale not given here
Source text: as §1

COC(=O)c1sccc1S(=O)(=O)NC(=O)Nc1nc(C)nc(OC)n1 [Thifensulfuron-methyl]
CHEAL Obs ([1]; 14 DAA, 2 g a.i./ha): 65 | CHEAL Obs ([1]; 14 DAA, 4 g a.i./ha): 83 | CHEAL Obs ([1]; 14 DAA, 8 g a.i./ha): 80 | CHEAL Obs ([1]; 28 DAA, 2 g a.i./ha): 90 | CHEAL Obs ([1]; 28 DAA, 4 g a.i./ha): 93 | CHEAL Obs ([1]; 28 DAA, 8 g a.i./ha): 98 | CHEAL Obs ([1]; 56 DAA, 2 g a.i./ha): 27 | CHEAL Obs ([1]; 56 DAA, 4 g a.i./ha): 50 | CHEAL Obs ([1]; 56 DAA, 8 g a.i./ha): 93 | TRZAW Obs (winter wheat (TRZAW); 16 days after application): 0 | TRZAW Obs (winter wheat (TRZAW); 28 days after application): 0 | TRZAW Obs (winter wheat (TRZAW); 49 days after application): 0 | IPOHE Obs ([2]; 14 DAA, 2 g a.i./ha): 57 | IPOHE Obs ([2]; 14 DAA, 4 g a.i./ha): 72 | IPOHE Obs ([2]; 14 DAA, 8 g a.i./ha): 73 | IPOHE Obs ([2]; 28 DAA, 2 g a.i./ha): 17 | IPOHE Obs ([2]; 28 DAA, 4 g a.i./ha): 20 | IPOHE Obs ([2]; 28 DAA, 8 g a.i./ha): 45 | IPOHE Obs ([2]; 56 DAA, 2 g a.i./ha): 0 | IPOHE Obs ([2]; 56 DAA, 4 g a.i./ha): 0 | IPOHE Obs ([2]; 56 DAA, 8 g a.i./ha): 20 | ZEAMD Obs (corn (ZEAMD); 14 days after application): 0 | ZEAMD Obs (corn (ZEAMD); 56 days after application): 0 | AMBTR Obs (giant ragweed (AMBTR); 14 DAA, 2 g a.i./ha): 75 | AMBTR Obs (giant ragweed (AMBTR); 28 DAA, 2 g a.i./ha): 5 | AMBTR Obs (giant ragweed (AMBTR); 28 DAA, 4 g a.i./ha): 5 | SETFA Obs (giant foxtail (SETFA); 28 DAA, 2 g a.i./ha): 87 | SETFA Obs (giant foxtail (SETFA); 28 DAA, 4 g a.i./ha): 88 | SETFA Obs (giant foxtail (SETFA); 28 DAA, 8 g a.i./ha): 82 | SETFA Obs (giant foxtail (SETFA); 56 DAA, 2 g a.i./ha): 0 | SETFA Obs (giant foxtail (SETFA); 56 DAA, 4 g a.i./ha): 23 | SETFA Obs (giant foxtail (SETFA); 56 DAA, 8 g a.i./ha): 13 | KCHSC Obs (kochia (KCHSC); 16 DAA): 0 | KCHSC Obs (kochia (KCHSC); 28 DAA): 0 | KCHSC Obs (kochia (KCHSC); 49 DAA): 0 | DATST Obs (jimsonweed (DATST); 2 g a.i./ha): 40 | DATST Obs (jimsonweed (DATST); 4 g a.i./ha): 87 | DATST Obs (jimsonweed (DATST); 8 g a.i./ha): 83 | POLPY Obs ([3]; 14 DAA, 8 g a.i./ha): 0 | POLPY Obs ([3]; 28 DAA, 2 g a.i./ha): 73 | POLPY Obs ([3]; 28 DAA, 4 g a.i./ha): 100 | POLPY Obs ([3]; 28 DAA, 8 g a.i./ha): 100 | AMBEL Obs (common ragweed (AMBEL); 14 DAA, 2 g a.i./ha): 55 | AMBEL Obs (common ragweed (AMBEL); 14 DAA, 4 g a.i./ha): 72 | AMBEL Obs (common ragweed (AMBEL); 14 DAA, 8 g a.i./ha): 76 | AMBEL Obs (common ragweed (AMBEL); 28 DAA, 2 g a.i./ha): 23 | AMBEL Obs (common ragweed (AMBEL); 28 DAA, 4 g a.i./ha): 53 | AMBEL Obs (common ragweed (AMBEL); 28 DAA, 8 g a.i./ha): 43 | AMBEL Obs (common ragweed (AMBEL); 56 DAA, 2 g a.i./ha): 0 | AMBEL Obs (common ragweed (AMBEL); 56 DAA, 4 g a.i./ha): 17 | AMBEL Obs (common ragweed (AMBEL); 56 DAA, 8 g a.i./ha): 25 | ABUTH Obs (velvetleaf (ABUTH); 14 DAA, 2 g a.i./ha): 53 | ABUTH Obs (velvetleaf (ABUTH); 14 DAA, 4 g a.i./ha): 60 | ABUTH Obs (velvetleaf (ABUTH); 14 DAA, 8 g a.i./ha): 55 | ABUTH Obs (velvetleaf (ABUTH); 28 DAA, 2 g a.i./ha): 75 | ABUTH Obs (velvetleaf (ABUTH); 28 DAA, 4 g a.i./ha): 79 | ABUTH Obs (velvetleaf (ABUTH); 28 DAA, 8 g a.i./ha): 87 | ABUTH Obs (velvetleaf (ABUTH); 56 DAA, 2 g a.i./ha): 33 | ABUTH Obs (velvetleaf (ABUTH); 56 DAA, 4 g a.i./ha): 30 | ABUTH Obs (velvetleaf (ABUTH); 56 DAA, 8 g a.i./ha): 73
